These results are taken from patent US8329702B2, “Heterocycles useful as modulators of ion channels” (Vertex Pharmaceuticals Incorporated, priority 2005, dated 2012).

Molecules are shown by their SMILES. Where two headings read alike, the source gives them in different places.

Assay [1] deals with T1, NaV1.8 (Homo sapiens, UniProt Q9Y5Y9). As to the kind of experiment: Activity against NaV1.8 channel (Table 3). Format: cell-based. The method, then: Compounds of the invention are useful as antagonists of voltage-gated sodium ion channels. Antagonist properties of test compounds were assessed as follows. Cells expressing the NaV of interest were placed into microtiter plates. After an incubation period, the cells were stained with fluorescent dyes sensitive to the transmembrane potential. The test compounds were added to the microtiter plate. The cells were stimulated with either a chemical or electrical means to evoke a NaV dependent membrane potential change from unblocked channels, which was detected and measured with trans-membrane potential-sensitive dyes. Antagonists were detected as a decreased membrane potential response to the stimulus. The optical membrane potential assay utilized voltage-sensitive FRET sensors described by Gonzalez and Tsien (See, Gonzalez, J. E. and R. Y. Tsien (1995) “Voltage sensing by fluorescence resonance energy transfer in single cells” Biophys J 69(4): 1272-80, and Gonzalez, J. E. and R. Y. Tsien (1997) “Improved indicators of cell membrane potential that use fluorescence resonance energy transfer” Chem Biol 4(4): 269-77) in combination with instrumentation for measuring fluorescence changes such as the Voltage/Ion Probe Reader (VIPR®) (See, Gonzalez, J. E., K. Oades, et al. (1999) “Cell-based assays and instrumentation for screening ion-channel targets” Drug Discov Today 4(9): 431-439).
24 hours before the assay on VIPR, CHO cells endogenously expressing a NaV1.2 type voltage-gated NaV are seeded in 96-well poly-lysine coated plates at 60,000 cells per well. Other subtypes are performed in an analogous mode in a cell line expressing the NaV of interest.
The following is an example of how NaV1.3 inhibition activity is measured using the optical membrane potential method#2. Other subtypes are performed in an analogous mode in a cell line expressing the NaV of interest.
Patch clamp electrophysiology was used to assess the efficacy and selectivity of sodium channel blockers in dorsal root ganglion neurons. Rat neurons were isolated from the dorsal root ganglions and maintained in culture for 2 to 10 days in the presence of NGF (50 ng/ml) (culture media consisted of NeurobasalA supplemented with B27, glutamine and antibiotics). Small diameter neurons (nociceptors, 8-12 μm in diameter) have been visually identified and probed with fine tip glass electrodes connected to an amplifier (Axon Instruments). The “voltage clamp” mode has been used to assess the compound's IC50 holding the cells at −60 mV. In addition, the “current clamp” mode has been employed to test the efficacy of the compounds in blocking action potential generation in response to current injections. The results of these experiments have contributed to the definition of the efficacy profile of the compounds.
TTX-resistant sodium currents were recorded from DRG somata using the whole-cell variation of the patch clamp technique. Recordings were made at room temperature (˜22° C.) with thick walled borosilicate glass electrodes (WPI; resistance 3-4 MΩ) using an Axopatch 200B amplifier (Axon Instruments). After establishing the whole-cell configuration, approximately 15 minutes were allowed for the pipette solution to equilibrate within the cell before beginning recording. Currents were lowpass filtered between 2-5 kHz and digitally sampled at 10 kHz. Series resistance was compensated 60-70% and was monitored continuously throughout the experiment. The liquid junction potential (−7 mV) between the intracellular pipette solution and the external recording solution was not accounted for in the data analysis. Test solutions were applied to the cells with a gravity driven fast perfusion system (SF-77; Warner Instruments).
Dose-response relationships were determined in voltage clamp mode by repeatedly depolarizing the cell from the experiment specific holding potential to a test potential of +10 mV once every 60 seconds. […]

The target in assay [2] is T1, NaV1.8. Conditions: read-out: TTX IC50; cited from earlier work.
The conditions of assay [3]: neuropathic pain, modest efficacy; cited from earlier work.

T1 sequence (Q9Y5Y9 whole entry, looked up): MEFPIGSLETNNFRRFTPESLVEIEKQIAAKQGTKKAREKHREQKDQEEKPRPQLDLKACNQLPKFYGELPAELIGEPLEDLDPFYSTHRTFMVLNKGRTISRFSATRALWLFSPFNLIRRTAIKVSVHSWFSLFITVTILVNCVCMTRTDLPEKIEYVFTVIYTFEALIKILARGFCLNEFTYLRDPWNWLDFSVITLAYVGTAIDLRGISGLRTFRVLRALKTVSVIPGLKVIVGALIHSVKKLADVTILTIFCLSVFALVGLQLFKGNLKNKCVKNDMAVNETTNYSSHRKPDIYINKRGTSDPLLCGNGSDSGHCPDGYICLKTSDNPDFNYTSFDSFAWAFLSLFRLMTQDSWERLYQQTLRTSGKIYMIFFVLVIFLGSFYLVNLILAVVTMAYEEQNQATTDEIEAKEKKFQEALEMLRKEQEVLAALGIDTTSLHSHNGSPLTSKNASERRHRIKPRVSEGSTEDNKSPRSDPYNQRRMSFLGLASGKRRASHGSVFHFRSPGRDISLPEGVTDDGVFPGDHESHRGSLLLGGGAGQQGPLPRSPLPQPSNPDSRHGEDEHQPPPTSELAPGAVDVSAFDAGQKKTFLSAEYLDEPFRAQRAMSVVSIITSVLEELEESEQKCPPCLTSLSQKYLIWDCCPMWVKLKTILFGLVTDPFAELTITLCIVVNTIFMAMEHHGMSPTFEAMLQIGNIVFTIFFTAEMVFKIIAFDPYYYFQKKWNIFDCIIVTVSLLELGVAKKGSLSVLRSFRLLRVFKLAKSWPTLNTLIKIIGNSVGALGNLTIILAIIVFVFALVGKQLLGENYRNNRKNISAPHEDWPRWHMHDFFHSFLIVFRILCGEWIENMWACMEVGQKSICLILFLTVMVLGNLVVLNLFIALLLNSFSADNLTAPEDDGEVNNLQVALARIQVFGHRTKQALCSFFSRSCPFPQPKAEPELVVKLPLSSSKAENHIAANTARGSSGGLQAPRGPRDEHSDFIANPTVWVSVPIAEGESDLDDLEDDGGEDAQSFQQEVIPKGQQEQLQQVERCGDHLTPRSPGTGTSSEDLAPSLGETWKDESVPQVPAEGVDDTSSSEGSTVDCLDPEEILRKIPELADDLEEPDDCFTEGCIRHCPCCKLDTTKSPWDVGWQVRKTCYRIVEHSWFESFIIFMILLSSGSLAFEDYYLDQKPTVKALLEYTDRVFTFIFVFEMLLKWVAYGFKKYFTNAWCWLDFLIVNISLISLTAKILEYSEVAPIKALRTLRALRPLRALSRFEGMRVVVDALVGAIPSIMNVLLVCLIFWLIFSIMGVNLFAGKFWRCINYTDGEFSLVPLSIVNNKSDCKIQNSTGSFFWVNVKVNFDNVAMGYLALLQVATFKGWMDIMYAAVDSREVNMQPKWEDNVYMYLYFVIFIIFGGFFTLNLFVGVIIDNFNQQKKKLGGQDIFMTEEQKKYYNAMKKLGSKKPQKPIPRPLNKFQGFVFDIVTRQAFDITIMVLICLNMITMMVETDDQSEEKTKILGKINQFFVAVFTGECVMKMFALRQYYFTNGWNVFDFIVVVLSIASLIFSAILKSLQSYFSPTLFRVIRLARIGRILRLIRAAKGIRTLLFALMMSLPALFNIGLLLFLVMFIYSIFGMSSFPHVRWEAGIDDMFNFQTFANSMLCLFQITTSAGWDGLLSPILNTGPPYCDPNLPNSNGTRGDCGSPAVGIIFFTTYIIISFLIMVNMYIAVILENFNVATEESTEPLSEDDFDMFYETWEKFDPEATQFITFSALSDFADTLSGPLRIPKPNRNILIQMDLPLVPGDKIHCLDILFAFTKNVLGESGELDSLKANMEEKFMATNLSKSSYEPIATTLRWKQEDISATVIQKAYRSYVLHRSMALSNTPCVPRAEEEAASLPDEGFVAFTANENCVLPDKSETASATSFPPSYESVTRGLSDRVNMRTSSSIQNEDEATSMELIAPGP

Consider `CC(C)COC(=O)N1CCN(c2nc(-c3ccccc3O)cs2)CC1` [Compound 2], for which, on NaV1.8 [1], the concentration for half-maximal inhibition (IC50) is greater than 20 µM. On to `COc1ccccc1-c1csc(N2CCN(C(=O)OC(C)(C)C)CC2)n1` [Compound 3], for which, at NaV1.8 [1], the half-inhibitory concentration (IC50) was 10 to 20 µM. On to `CC(C)COC(=O)N1CCN(c2nsc(-c3ccccc3O)n2)CC1` [Compound 17, Isobutyl 4-(5-(2-hydroxyphenyl)-1,2,4-thiadiazol-3-yl)piperazine-1-carboxylate], for which the half-inhibitory concentration (IC50) at NaV1.8 [1] is greater than 20 µM. Turning to `CC(C)COC(=O)N1CCN(c2nc(-c3ccccc3F)cs2)CC1` [Compound 10, Isobutyl 4-(4-(2-fluorophenyl)thiazol-2-yl)piperazine-1-carboxylate], at NaV1.8 [1], the concentration for half-maximal inhibition (IC50) is greater than 20 µM. For the molecule `COCCOC(=O)N1CCN(c2nc(-c3ccccc3F)cs2)CC1` [Compound 13], the 50% inhibitory concentration (IC50) at NaV1.8 [1] was greater than 20 µM. On to `CC(C)(C)COC(=O)N1CCN(c2nc(-c3ccccc3F)cs2)CC1` [Compound 11], for which the half-inhibitory concentration (IC50) at NaV1.8 [1] was greater than 20 µM. Same read-out and setting: under `O=C(OCc1ccccc1)N1CCN(c2nc(-c3ccccc3F)cs2)CC1` [Compound 9, Benzyl 4-(4-(2-fluorophenyl)thiazol-2-yl)piperazine-1-carboxylate] stands greater than 20 µM. Consider `CC(C)COC(=O)NC1CCN(c2nc(-c3ccccc3O)ns2)CC1` [Compound 16, Isobutyl 1-(3-(2-hydroxyphenyl)-1,2,4-thiadiazol-5-yl)piperidin-4-ylcarbamate], for which, on NaV1.8 [1], the half-maximal inhibitory concentration (IC50) was greater than 20 µM. Take `NC1=N[C@H](O)[C@H]2[C@H]3O[C@]4(O)O[C@@H]([C@@H](O)[C@@]2(N1)[C@@H]4O)[C@]3(O)CO` [TTX, tetrodotoxin]: the IC50 at NaV1.8 [2] is greater than 50 µM.

Regarding `O=C([C@H]1CCCO1)N1CCN(c2nc(-c3ccccc3F)cs2)CC1` [Compound 14], on NaV1.8 [1], the half-maximal inhibitory concentration (IC50) was greater than 20 µM.

For the molecule `O=C(OC1CCOC1)N1CCN(c2nc(-c3ccccc3F)cs2)CC1` (stereo not shown) [Compound 12], the IC50 on NaV1.8 [1] was greater than 20 µM. The same measure, in the same setting: under `O=C([C@@H]1CCCO1)N1CCN(c2nc(-c3ccccc3O)cs2)CC1` [Compound 5] stands greater than 20 µM; under `CC(C)[C@@H](O)C(=O)NCC1CCN(c2nc(-c3ccccc3O)ns2)CC1` [Compound 15], greater than 20 µM. Consider `O=C(O[C@H]1CCOC1)N1CCN(c2nc(-c3ccccc3O)cs2)CC1` [Compound 7], for which the IC50 on NaV1.8 [1] was greater than 20 µM. Regarding `COCCOC(=O)N1CCN(c2nc(-c3ccccc3O)cs2)CC1` [Compound 8], the IC50 at NaV1.8 [1] is greater than 20 µM.

For `NCC1(CC(=O)O)CCCCC1` [Gabapentin], in assay [3], the “patients in which it works” value was 60%.

Consider `CCCCS(=O)(=O)N1CCN(c2nc(-c3ccccc3O)cs2)CC1` [Compound 4], for which the 50% inhibitory concentration (IC50) on NaV1.8 [1] is greater than 20 µM. Turning to `Oc1ccccc1-c1csc(N2CCCCC2)n1` [Compound 1], the IC50 at NaV1.8 [1] lay within 10 to 20 µM. With `CC(C)OC(=O)N1CCN(c2nc(-c3ccccc3O)cs2)CC1` [Compound 6], the IC50 at NaV1.8 [1] is greater than 20 µM.

By IC50 is commonly meant the concentration that inhibits the measured activity by half.
